In patent publication US20240109930A1, “TRIAZOLYL-METHYL SUBSTITUTED ALPHA-D-GALACTOPYRANOSIDE DERIVATIVES” (Idorsia Pharmaceuticals Ltd, priority 2021, published 2024):

Assays:
human Gal-3 (hGal-3) = human Gal-3 (hGal-3) (Homo sapiens (Human), UniProt P17931); assay: Competitive binding assay: biotinylated hGal-3 binding to microplate-adsorbed asialofetuin (ASF); settings: IC50 values from several measurements given as geomean
How it was run: (§1)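 Biotinylated hGal-3 or hGal-1 (preferably cysteine-free Cys→Ser mutant), 300–1000 ng/mL, competes with compound for ASF-coated wells for 3 h at 4 °C. Bound lectin detected with streptavidin-peroxidase (80 ng/mL, 1 h, 4 °C) and ABTS by absorbance; IC50 reported as geomean of several runs.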

human Gal-1 (hGal-1) = human Gal-1 (hGal-1) (Homo sapiens, UniProt P09382, C131S/C17S/C43S/C61S/C89S); assay: Competitive binding assay: biotinylated hGal-1 binding to microplate-adsorbed asialofetuin (ASF); settings: IC50 values from several measurements given as geomean
How it was run: as §1

Sequence of human Gal-3 (hGal-3) (P17931 whole entry): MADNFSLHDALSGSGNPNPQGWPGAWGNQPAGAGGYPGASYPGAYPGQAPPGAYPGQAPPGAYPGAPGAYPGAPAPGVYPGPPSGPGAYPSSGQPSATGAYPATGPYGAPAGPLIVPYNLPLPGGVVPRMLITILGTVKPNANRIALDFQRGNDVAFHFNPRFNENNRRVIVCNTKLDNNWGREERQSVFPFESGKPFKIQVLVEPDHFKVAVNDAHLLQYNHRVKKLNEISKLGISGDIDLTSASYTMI

Row | IC50 (human Gal-3 (hGal-3)) [nM] | IC50 (human Gal-1 (hGal-1)) [nM] | Compound
1 | 40 | 1490 | CO[C@@H]1[C@@H](n2cc(-c3ccc(Cl)c(F)c3F)nn2)[C@@H](O)[C@@H](CO)O[C@@H]1Cc1cn(C(C)(C)CF)nn1 [Ex 2.1.45.]
2 | 80 | 4780 | CO[C@@H]1[C@@H](n2cc(-c3ccc(Cl)c(F)c3F)nn2)[C@@H](O)[C@@H](CO)O[C@@H]1Cn1cc(C2(O)CCCC2)nn1 [Ex 2.2.33.]
3 | 50 | 3630 | CO[C@@H]1[C@@H](n2cc(-c3ccc(Br)c(F)c3F)nn2)[C@@H](O)[C@@H](CO)O[C@@H]1Cc1cn(C23CC(OC)(C2)C3)nn1 [Ex 4.1.29.]
4 | 160 | 8800 | CO[C@@H]1[C@@H](n2cc(-c3ccc(Cl)c(F)c3F)nn2)[C@@H](O)[C@@H](CO)O[C@@H]1Cn1cc(C2CC(F)(F)C2)nn1 [Ex 2.2.83.]
5 | 130 | 9170 | CO[C@@H]1[C@@H](n2cc(-c3ccc(Cl)c(F)c3F)nn2)[C@@H](O)[C@@H](CO)O[C@@H]1Cc1cn(C2CC(C(F)(F)F)C2)nn1 (stereo partly drawn) [Ex 2.1.41.]
6 | 40 | 2930 | CO[C@@H]1[C@@H](n2cc(-c3ccc(Br)c(F)c3F)nn2)[C@@H](O)[C@@H](CO)O[C@@H]1Cc1cn(C2(CO)CC2)nn1 [Ex 4.1.4.]
7 | 30 | 1510 | CO[C@@H]1[C@@H](n2cc(-c3ccc(Cl)c(F)c3F)nn2)[C@@H](O)[C@@H](CO)O[C@@H]1Cn1cc(C2(C)CCC2)nn1 [Ex 2.2.13.]
8 | 90 | 2080 | CO[C@@H]1[C@@H](n2cc(-c3ccc(F)c(F)c3F)nn2)[C@@H](O)[C@@H](CO)O[C@@H]1Cc1cn(C23CC(C(F)(F)F)(C2)C3)nn1 [Ex 3.1.24.]
9 | 60 | 950 | CO[C@@H]1[C@@H](n2cc(-c3ccc(F)c(F)c3F)nn2)[C@@H](O)[C@@H](CO)O[C@@H]1Cc1cn(C23CC(C2)C3)nn1 [Ex 3.1.12.]
10 | 60 | 2680 | CO[C@@H]1[C@@H](n2cc(-c3ccc(Br)c(F)c3F)nn2)[C@@H](O)[C@@H](CO)O[C@@H]1Cn1cc(C2CCCC2)nn1 [Ex 4.2.32.]
11 | 40 | 240 | CO[C@@H]1[C@@H](n2cc(-c3ccc(F)c(F)c3F)nn2)[C@@H](O)[C@@H](CO)O[C@@H]1Cc1cn(C2(C(F)F)CC2)nn1 [Ex 3.1.51.]
12 | 50 | 820 | CO[C@@H]1[C@@H](n2cc(-c3ccc(Cl)c(F)c3F)nn2)[C@@H](O)[C@@H](CO)O[C@@H]1Cc1cn(C(C)(C)C(F)(F)F)nn1 [Ex 2.1.56.]
13 | 40 | 4700 | CO[C@@H]1[C@@H](n2cc(-c3ccc(Br)c(F)c3F)nn2)[C@@H](O)[C@@H](CO)O[C@@H]1Cc1cn([C@H]2CCC[C@@H]2O)nn1 [Ex 4.1.3.]
14 | 20 | 2030 | CO[C@@H]1[C@@H](n2cc(-c3ccc(Br)c(F)c3F)nn2)[C@@H](O)[C@@H](CO)O[C@@H]1Cc1cn(C23CCOC(C)(C2)C3)nn1 [Ex 4.1.62., (2R,3R,4S,5R,6R)-4-(4-(4-bromo-2,3-difluorophenyl)-1H-1,2,3-triazol-1-yl)-2-(hydroxymethyl)-5-methoxy-6-((1-(1-methyl-2-oxabicyclo[3.1.1]heptan-5-yl)-1H-1,2,3-triazol-4-yl)methyl)tetrahydro-2H-pyran-3-ol]
15 | 30 | 240 | CO[C@@H]1[C@@H](n2cc(-c3ccc(F)c(F)c3F)nn2)[C@@H](O)[C@@H](CO)O[C@@H]1Cc1cn(C2(CF)COC2)nn1 [Ex 3.1.52.]
16 | 30 | 210 | CO[C@@H]1[C@@H](n2cc(-c3ccc(F)c(F)c3F)nn2)[C@@H](O)[C@@H](CO)O[C@@H]1Cc1cn(C2(C(F)F)CCC2)nn1 [Ex 3.1.43., (2R,3R,4S,5R,6R)-6-((1-(1-(difluoromethyl)cyclobutyl)-1H-1,2,3-triazol-4-yl)methyl)-2-(hydroxymethyl)-5-methoxy-4-(4-(2,3,4-trifluorophenyl)-1H-1,2,3-triazol-1-yl)tetrahydro-2H-pyran-3-ol]
17 | 50 | 2570 | CO[C@@H]1[C@@H](n2cc(-c3ccc(C)c(F)c3F)nn2)[C@@H](O)[C@@H](CO)O[C@@H]1Cc1cn(C2(CO)CCCC2)nn1 [Ex 1.1.5.]
18 | 60 | 2950 | COCC1(n2cc(C[C@H]3O[C@H](CO)[C@H](O)[C@H](n4cc(-c5ccc(Cl)c(F)c5F)nn4)[C@H]3OC)nn2)CC1 [Ex 2.1.7.]
19 | 70 | 5120 | CO[C@@H]1[C@@H](n2cc(-c3ccc(Cl)c(F)c3F)nn2)[C@@H](O)[C@@H](CO)O[C@@H]1Cn1cc(C(C)(C)O)nn1 [Ex 2.2.34.]
20 | 80 | 5330 | CO[C@@H]1[C@@H](n2cc(-c3ccc(C)c(F)c3F)nn2)[C@@H](O)[C@@H](CO)O[C@@H]1Cn1cc(C(C)(C)O)nn1 [Ex 1.2.34., (2R,3R,4S,5R,6R)-4-(4-(2,3-Difluoro-4-methylphenyl)-1H-1,2,3-triazol-1-yl)-2-(hydroxymethyl)-6-((4-(2-hydroxypropan-2-yl)-1H-1,2,3-triazol-1-yl)methyl)-5-methoxytetrahydro-2H-pyran-3-ol]
21 | 40 | 1670 | CO[C@@H]1[C@@H](n2cc(-c3ccc(Cl)c(F)c3F)nn2)[C@@H](O)[C@@H](CO)O[C@@H]1Cc1cn(C(C)(C)CO)nn1 [Ex 2.1.9.]

Row | IC50 (human Gal-3 (hGal-3)) [nM] | IC50 (human Gal-1 (hGal-1)) [nM] | Compound
22 | 30 | 2100 | CO[C@@H]1[C@@H](n2cc(-c3ccc(Cl)c(F)c3F)nn2)[C@@H](O)[C@@H](CO)O[C@@H]1Cc1cn(C23COC(C2)C3)nn1 [Ex 2.1.44.]
23 | 20 | 9400 | COC1=C(N2CC(c3ccc(C)c(F)c3F)NN2)C(O)=C(CO)O[C@@H]1Cn1cc(C23CCC(NC(=O)OC(C)(C)C)(CC2)CC3)nn1 (stereo partly drawn) [Ex 1.2.37.]
24 | 40 | 1550 | CO[C@@H]1[C@@H](n2cc(-c3ccc(F)c(F)c3F)nn2)[C@@H](O)[C@@H](CO)O[C@@H]1Cc1cn(C23CC(F)(C2)C3)nn1 [Ex 3.1.25.]
25 | 50 | 3400 | CO[C@@H]1[C@@H](n2cc(-c3ccc(Cl)c(F)c3F)nn2)[C@@H](O)[C@@H](CO)O[C@@H]1Cn1cc(C23CC(C2)C3)nn1 [Ex 2.2.12.]
26 | 40 | 3050 | CO[C@@H]1[C@@H](n2cc(-c3ccc(Cl)c(F)c3F)nn2)[C@@H](O)[C@@H](CO)O[C@@H]1Cc1cn(C2(CO)CC2)nn1 [Ex 2.1.4.]
27 | 60 | 1150 | CO[C@@H]1[C@@H](n2cc(-c3ccc(F)c(F)c3F)nn2)[C@@H](O)[C@@H](CO)O[C@@H]1Cn1cc(C2CCCC2)nn1 [Ex 3.2.32.]
28 | 50 | 3810 | CO[C@@H]1[C@@H](n2cc(-c3ccc(Cl)c(F)c3F)nn2)[C@@H](O)[C@@H](CO)O[C@@H]1Cn1cc(C2CCCC2)nn1 [Ex 2.2.32.]
29 | 40 | 1720 | CO[C@@H]1[C@@H](n2cc(-c3ccc(F)c(F)c3F)nn2)[C@@H](O)[C@@H](CO)O[C@@H]1Cn1cc(C23CCC(NC(=O)OC(C)(C)C)(CC2)CC3)nn1 [Ex 3.2.37.]
30 | 50 | 3450 | CO[C@@H]1[C@@H](n2cc(-c3ccc(Cl)c(F)c3F)nn2)[C@@H](O)[C@@H](CO)O[C@@H]1Cc1cn(C23CC(C)(C2)C3)nn1 [Ex 2.1.14.]
31 | 20 | 950 | CO[C@@H]1[C@@H](n2cc(-c3ccc(Cl)c(F)c3F)nn2)[C@@H](O)[C@@H](CO)O[C@@H]1Cc1cn([C@@H]2CCOC[C@H]2F)nn1 [Example 2.1.66.C, (2R,3R,4S,5R,6R)-4-(4-(4-chloro-2,3-difluorophenyl)-1H-1,2,3-triazol-1-yl)-6-((1-((3S,4R)-3-fluorotetrahydro-2H-pyran-4-yl)-1H-1,2,3-triazol-4-yl)methyl)-2-(hydroxymethyl)-5-methoxytetrahydro-2H-pyran-3-ol]
32 | 90 | 1390 | CO[C@@H]1[C@@H](n2cc(-c3ccc(F)c(F)c3F)nn2)[C@@H](O)[C@@H](CO)O[C@@H]1Cc1cn(C2(CO)CC(F)(F)C2)nn1 [Ex 3.1.18.]
33 | 30 | 2650 | CCC1(c2cn(C[C@H]3O[C@H](CO)[C@H](O)[C@H](n4cc(-c5ccc(C)c(F)c5F)nn4)[C@H]3OC)nn2)COC1 [Ex 1.2.38.]
34 | 50 | 2480 | CO[C@@H]1[C@@H](n2cc(-c3ccc(Br)c(F)c3F)nn2)[C@@H](O)[C@@H](CO)O[C@@H]1Cn1cc(C2(C)CC2)nn1 [Ex 4.2.23.]
35 | 90 | 3310 | CO[C@@H]1[C@@H](n2cc(-c3ccc(Br)c(F)c3F)nn2)[C@@H](O)[C@@H](CO)O[C@@H]1Cn1cc(C23CC(C2)C3)nn1 [Ex 4.2.12.]
36 | 50 | 370 | CO[C@@H]1[C@@H](n2cc(-c3ccc(F)c(F)c3F)nn2)[C@@H](O)[C@@H](CO)O[C@@H]1Cc1cn(C2CCC23CCC3)nn1 (stereo partly drawn) [Ex 3.1.82.]
37 | 70 | 1530 | COCC1(n2cc(C[C@H]3O[C@H](CO)[C@H](O)[C@H](n4cc(-c5ccc(Br)c(F)c5F)nn4)[C@H]3OC)nn2)CCC1 [Ex 4.1.21.]
38 | 30 | 140 | CO[C@@H]1[C@@H](n2cc(-c3ccc(F)c(F)c3F)nn2)[C@@H](O)[C@@H](CO)O[C@@H]1Cc1cn([C@]2(C)C[C@@H](O)C2)nn1 [Ex 3.1.27.]
39 | 30 | 1760 | CO[C@@H]1[C@@H](n2cc(-c3ccc(C)c(F)c3F)nn2)[C@@H](O)[C@@H](CO)O[C@@H]1Cc1cn(C2(C)CC(F)(F)C2)nn1 [Ex 1.1.15.]
40 | 70 | 760 | CO[C@@H]1[C@@H](n2cc(-c3ccc(F)c(F)c3F)nn2)[C@@H](O)[C@@H](CO)O[C@@H]1Cc1cn(C2CC3(CC3)C2)nn1 [Ex 3.1.26.]
41 | 70 | 580 | CO[C@@H]1[C@@H](n2cc(-c3ccc(F)c(F)c3F)nn2)[C@@H](O)[C@@H](CO)O[C@@H]1Cn1cc(C2(C)COC2)nn1 [Ex 3.2.6.]
42 | 60 | 2060 | CO[C@@H]1[C@@H](n2cc(-c3ccc(Cl)c(F)c3F)nn2)[C@@H](O)[C@@H](CO)O[C@@H]1Cc1cn(C2[C@H]3CCC[C@@H]23)nn1 (stereo partly drawn) [Ex 2.1.20.]
